Holding throughout (assay): DTP human tumour cell line panel, 48 h
Assay [1] concerns CAKI-1 renal.
Assay [2] concerns SR leukemia.
Assay [3] deals with SN12C renal.
The test system of assay [4] is MOLT-4 leukemia.
Assay [5] relates to U251 CNS.
Assay [6] concerns K-562 leukemia.
Assay [7] relates to SF-268 CNS.
Assay [8] concerns MDA-MB-435.
Assay [9] relates to OVCAR-4 ovarian.
In assay [10] the test system is LOX IMVI melanoma.

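Dose response: 5 concentrations. Exposure: 48 h. Format: 96-well plates. Endpoint: linear interpolation; highest concentration if not reached. The concentration for 50% growth inhibition is given as GI50. TGI: concentration producing complete growth inhibition.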

Turning to `Cc1ccc(S(=O)(=O)Cc2nc(-c3ccc(C(=O)NCc4cccnc4)cc3)oc2C)cc1`, the GI50 in assay [1] is 1.87 µM; in assay [2], 0.514 µM; in assay [3] it was less than 0.01 µM; in assay [4] it was 0.595 µM; in assay [5], 1.01 µM; in [6], less than 0.01 µM. Besides, the GI50 was 19 µM in assay [7], 0.054 µM in assay [8], 2.64 µM in [9] and 8.12 µM in assay [10]. Moreover, the TGI in assay [1] is greater than 100 µM; in assay [2] it was greater than 100 µM; in [3] it was greater than 100 µM; in assay [4], greater than 100 µM; in assay [5], greater than 76.7 µM; in assay [6], greater than 100 µM. Besides, the TGI in assay [7] is greater than 100 µM; in assay [8] it was 12 µM; in [9], greater than 100 µM; in [10], greater than 100 µM.
As for `C#Cc1cccc(Nc2nc3ccc([N+](=O)[O-])cc3nc2Nc2cccc(C#C)c2)c1`, the GI50 in assay [1] was 0.297 µM; in [2], 0.318 µM; in assay [3], 0.313 µM; in assay [4], 0.247 µM; in assay [5] it was 0.18 µM; in [6] it was 0.216 µM. In addition, the GI50 in assay [7] is 0.313 µM; in assay [8], 0.265 µM; in [9] it was 0.218 µM; in assay [10], 0.172 µM. For the same compound, the TGI in assay [1] stood at 0.994 µM; in assay [2], 1.3 µM; in assay [3] it was 1.29 µM; in assay [4] it was 1.02 µM; in [5] it was 0.482 µM; in assay [6] it was 0.7 µM. Further, the TGI in assay [7] was found to be 1.3 µM; in assay [8] it was 0.838 µM; in [9] it was 0.982 µM; in assay [10], 0.328 µM.
As for `CNC1C(O)C(OC2C(N)CC(N)C(OC3OC(C(C)O)C(O)C(O)C3N)C2O)OCC1(C)O` (stereo not drawn), the TGI in assay [1], in assay [2], in assay [3], in [4], in assay [5] and in [6] was greater than 100 µM throughout. The TGI in assay [7], in assay [8], in [9] and in assay [10] was greater than 100 µM each time.
For the compound `COc1ccc(-c2csc(-c3cc(Cl)cc(Cl)c3Cl)n2)cc1`, the GI50 in assay [1] was greater than 100 µM; in assay [2], 7.05 µM; in assay [3] it was greater than 100 µM; in [4], 57 µM; in assay [5] it was 60.2 µM; in assay [6], 46 µM. Moreover, the GI50 in assay [7] was 58 µM; in assay [8] it was 21.8 µM; in assay [9] it was 53.8 µM; in assay [10], greater than 100 µM. In addition, the TGI is greater than 100 µM in assay [1]; 32.4 µM in assay [2]; greater than 100 µM in assay [3]; greater than 100 µM in assay [4]; greater than 100 µM in assay [5]; greater than 100 µM in assay [6]. For the same compound, the total growth inhibition concentration (TGI) in assay [7], in [8], in assay [9] and in assay [10] was greater than 100 µM in each case.
As for `COc1cccc2[nH]c(-c3ccccn3)nc12`, the TGI in assay [1], in assay [2], in assay [3], in assay [5], in assay [6] and in [7] was greater than 100 µM in each case. The TGI in [8], in [9] and in assay [10] was greater than 100 µM throughout.
In the case of `O=[N+]([O-])c1ccc2ncccc2c1Cl`, the GI50 in assay [1] was 1.69 µM; in assay [2], 0.308 µM; in [3], 4.3 µM; in [4] it was 3.07 µM; in assay [5], 3.38 µM; in assay [6], 0.382 µM. For the same compound, the GI50 in [7] was 3.89 µM; in [8] it was 2.18 µM; in assay [10] it was 2.4 µM. Moreover, the TGI was 3.45 µM in [1]; 4.12 µM in [2]; greater than 100 µM in assay [3]; 12.2 µM in assay [4]; 11.8 µM in assay [5]; 27.1 µM in assay [6]. Moreover, the TGI in assay [7] is 13.9 µM; in assay [8] it was 9.07 µM; in [10], 14.5 µM.
Take `CN(CCCl)c1ccc(/C=C/C2=[N+](C)c3ccccc3C2(C)C)cc1`: the GI50 was 17.5 µM in [1]; 0.332 µM in [2]; 0.297 µM in [3]; 0.308 µM in [4]; 0.253 µM in assay [5]; 0.491 µM in [6]. Besides, the GI50 was 0.691 µM in [7], 0.415 µM in assay [8] and 1.62 µM in assay [9]. Also, the TGI in [1] was determined as 43.6 µM; in assay [2], 12.5 µM; in [3] it was 1.72 µM; in assay [4], 1.4 µM; in assay [5], 11.2 µM; in assay [6], 83.5 µM. Moreover, the TGI in [7] is 13.5 µM; in assay [8] it was 2.46 µM; in assay [9], 10 µM.
On to `C=C1C(=O)O[C@H]2[C@H]1CC/C(COC(=O)c1ccc(C#N)cc1)=C\CC[C@@]1(C)O[C@@H]21`, for which the GI50 was 0.548 µM in [2]; 2.22 µM in assay [3]; 2.37 µM in assay [4]; 2.86 µM in [5]; 1.94 µM in assay [6]; 2.2 µM in assay [7]. In addition, the figures for the GI50 in [8], in assay [9] and in assay [10] were 1.96 µM, 2.88 µM and 1.56 µM, respectively. Moreover, the TGI in [2] was greater than 100 µM; in [3], 5.75 µM; in [4], 6.52 µM; in assay [5], 10.3 µM; in assay [6] it was 13 µM; in [7], 5.09 µM. Further, the TGI in assay [8] turned out to be 4.53 µM; in [9] it was 9.39 µM; in assay [10] it was 2.99 µM.

A word on the GI50: it is the concentration that inhibits growth by half. For orientation: TGI means the concentration at which net growth stops. Read a low TGI as greater sensitivity of the cells.
